We go through four compounds from publication PMC8540821, “Estimation of the Difference in Colistin Plasma Levels in Critically Ill Patients with Favorable or Unfavorable Clinical Outcomes” (Pharmaceutics, 2021).

≈ marks a conversion by molar mass, not a printed value. Like-named read-outs stand apart in the source and are kept apart here.

The conditions of data set [1]: in vivo; cited from earlier work. The text has this: Colistin has been clinically available since the 1950s, but it soon fell into disuse, mainly due to its nephrotoxic potential. Alongside its nephrotoxicity, which ranges between 0 and 58% in different studies, some evidence has found the incidence of peripheral neuropathy may be up to 50% with its use, as the main manifestation of neurotoxicity. The lack of other available options has increased the use of colistin in MDR infections, even with its safety profile. The pharmacokinetics of colistin are complex. Colistin is available as a sulfate and as sodium colis ...

The test system of a further data set is P. aeruginosa. The experiment in a line: Susceptibility of clinical isolates (VITEK 2; MIC by broth dilution on microplate). It counts as cell-based, Pseudomonas aeruginosa. Particulars: for MIC: Pseudomonas aeruginosa, broth dilution. An excerpt:
(§1) The bacterial isolates were recovered in MacConkey agar (Oxoid-Thermo Scientific®, Hampshire, UK) and sent to the Bacterial Molecular Genetics Laboratory in AMIES transport media (COPAN). […] The MICs of meropenem, amikacin, and colistin were established by the broth dilution method on a microplate. E. coli ATCC® 25922^TM and P. aeruginosa ATCC® 27853^TM strains was used as a susceptibility control (American Type Culture Collection). Finally, the carbapenemase genes blaIMP, blaOXA-48, blaVIM, blaGES, blaKPC, and blaNDM were assessed by multiplex PCR [45].
(In general: Dilution methods test growth across graded concentrations, often in twofold steps.)

The subject of another data set is K. pneumoniae. Described as above. It counts as cell-based, Klebsiella pneumoniae. Particulars: for MIC: Klebsiella pneumoniae, broth dilution, read-out: highest MIC.
Text: as §1

For a further data set, the system named is A. baumannii. The description is as above. In kind it is cell-based, Acinetobacter baumannii. The settings on record: for MIC: Acinetobacter baumannii, broth dilution, one isolate.
Text: as §1

In a further data set the test system is P. putida. The data set is described as above. It counts as cell-based, Pseudomonas putida.
Text: as §1

In a further data set the test system is E. cloacae. Described as above. In kind it is cell-based, Enterobacter cloacae.
Text: as §1

A further data set deals with E. coli. The data set is described as above. In kind it is cell-based, Escherichia coli. Particulars: n = 1, favorable outcome.
Text: as §1

In the next data set the test system is C. freundii. The data set is described as above. In kind it is cell-based. Particulars: n = 1, unfavorable outcome.
Text: as §1

The mark [2] stands for this setting: isolates from patients with favorable outcome n = 10.
Setting [3] is: isolates from patients with unfavorable outcome n = 14.

In general, half-life refers to the time needed for the level to fall by half in the phase considered. By MIC is commonly meant the smallest concentration in the dilution series that meets the test's criterion for growth inhibition.

Take colistimethate sodium [CMS]: the half-life in data set [1] is reported as 124 min.

Take `NCC[C@H](O)C(=O)N[C@@H]1C[C@H](N)[C@@H](O[C@H]2O[C@H](CN)[C@@H](O)[C@H](O)[C@H]2O)[C@H](O)[C@H]1O[C@H]1O[C@H](CO)[C@@H](O)[C@H](N)[C@H]1O` [amikacin]: the MIC in the data set on P. aeruginosa (established in 23.3% of isolates, read-out: highest MIC) turned out to be 128 µg/mL (≈ 219 µM); in the data set with K. pneumoniae, 64 µg/mL (≈ 109 µM); against A. baumannii, 64 µg/mL (≈ 109 µM).

Consider `CN(C)c1cc(NC(=O)CNC(C)(C)C)c(O)c2c1C[C@H]1C[C@H]3[C@H](N(C)C)C(O)=C(C(N)=O)C(=O)[C@@]3(O)C(O)=C1C2=O` [Glycylcyclines, tigecycline], for which the “isolates I (intermediate), n (%)” value is 0 (0) n (%) in the data set on P. aeruginosa (setting [2]); 0 (0) n (%) with P. aeruginosa (setting [3]); 0 (0) n (%) in the data set on K. pneumoniae (favorable outcome n = 3); 0 (0) n (%) in the data set on K. pneumoniae (unfavorable outcome n = 2); 1 (100) n (%) in the data set on P. putida (favorable outcome n = 1); 0 (0) n (%) with P. putida (unfavorable outcome n = 1). Moreover, the “isolates I (intermediate), n (%)” value is given as 0 (0) n (%) with A. baumannii (n = 1, favorable outcome); 0 (0) n (%) with E. cloacae (n = 1, favorable outcome); 0 (0) n (%) in the data set on E. coli; 1 (100) n (%) with C. freundii. In addition, the “isolates R (resistant), n (%)” value is listed as 9 (90) n (%) in the data set on P. aeruginosa (setting [2]); 11 (78.6) n (%) in the data set on P. aeruginosa (setting [3]); 0 (0) n (%) in the data set with K. pneumoniae (favorable outcome n = 3); 0 (0) n (%) with K. pneumoniae (unfavorable outcome n = 2); 0 (0) n (%) with P. putida (favorable outcome n = 1); 0 (0) n (%) in the data set with P. putida (unfavorable outcome n = 1). The “isolates R (resistant), n (%)” value in the data set on A. baumannii (n = 1, favorable outcome) was 0 (0) n (%); in the data set with E. cloacae (n = 1, favorable outcome) it was 0 (0) n (%); with E. coli, 0 (0) n (%); in the data set with C. freundii it was 0 (0) n (%). Besides, the “isolates S (susceptible), n (%)” value in the data set on P. aeruginosa (setting [2]) is given as 0 (0) n (%); with P. aeruginosa (setting [3]), 0 (0) n (%); in the data set on K. pneumoniae (favorable outcome n = 3), 1 (33.3) n (%); with K. pneumoniae (unfavorable outcome n = 2), 2 (100) n (%); in the data set with P. putida (favorable outcome n = 1), 0 (0) n (%); with P. putida (unfavorable outcome n = 1), 1 (100) n (%). Further, the “isolates S (susceptible), n (%)” value with A. baumannii (n = 1, favorable outcome) is listed as 1 (100) n (%); with E. cloacae (n = 1, favorable outcome), 1 (100) n (%); in the data set on E. coli it was 1 (100) n (%); with C. freundii, 0 (0) n (%).

Regarding `C[C@@H](O)[C@H]1C(=O)N2C(C(=O)O)=C(S[C@@H]3CN[C@H](C(=O)N(C)C)C3)[C@H](C)[C@H]12` [meropenem], the minimum inhibitory concentration (MIC) with P. aeruginosa (found in 56.7% of isolates, 88.2% of which harbored KPC and VIM, read-out: MIC) was over 1020 µg/mL; with K. pneumoniae it was 32 µg/mL (≈ 83.4 µM); in the data set on P. putida (Pseudomonas putida, broth dilution, one isolate), over 1020 µg/mL; in the data set on A. baumannii, 64 µg/mL (≈ 167 µM); in the data set on E. cloacae (Enterobacter cloacae, broth dilution, read-out: highest MIC) it was 32 µg/mL (≈ 83.4 µM).
